Source: patent US20100137312A1, “NOVEL AROMATIC HETEROCYCLIC CARBOXYLIC ACID AMIDE DERIVATIVES USEFUL AS POTASSIUM CHANNEL MODULATORS” (neuroSearch A/S, priority 2007, published 2010)

Assays:
[1] = target: T1, BK channels heterologously expressed in Xenopus laevis oocytes (Homo sapiens, UniProt Q12791); assay: BK channel opening activity, two-electrode voltage clamp, left-shift of the BK activation curve; type: cell-based; conditions: 0.01-31.6 μM compound, sigmoidal logistic fit; for EC50: ΔV at control conductance level of +100 mV, read-out: EC50 for the left-shift of the BK activation curve (ΔV vs. concentration)
T1 construct: expressed in transfected cells; host or cells: Xenopus laevis oocytes
Description: In this example the BK channel opening activity of Compound 2 (FIGS. 1A and 1B), Compound 1 (FIGS. 2A and 2B) and Compound 9 (FIGS. 3A and 3B) is determined using BK channels heterologously expressed in Xenopus laevis oocytes.
The electrical current through the BK channel is measured using conventional two-electrode voltage clamp. BK currents are activated by repeating ramp protocols. In brief, the membrane potential is continuously changed from −120 mV to +120 mV within 2 s. The threshold for BK activation is approximately +30 mV under control conditions. Compounds are applies for 100 s during which the ramp protocol is repeated 10 times with 10 s intervals. In between the ramp protocols the membrane potential is clamped at −80 mV. The first three compound applications are control blanks where the current level is allowed to stabilize. In the subsequent 8 applications increasing concentrations (0.01-31.6 μM) of compound is applied and a marked increase in the current level at depolarizing potentials is observed.
In order to evaluate the ability of the compounds to shift the BK activation curve towards lower membrane potentials, the BK current was transformed into conductance by using Ohm's law g=I/(Ememb−Erev), where g is the conductance, I is the current, Ememb is the membrane potential and Erev is the reversal potential. The extracellular solution for these experiments contains 2.5 mM K^+and the intracellular K^+concentration of an oocyte is estimated to be 100 mM. Under those conditions, Nernst equation predicts a reversal potential of Erev=−93.2 mV. The control conductance level at a membrane potential of +100 mV was calculated, and the compound effect was evaluated as the potential difference, ΔV, to the membrane potential at which the same conductance level was obtained in the presence of compound.
The concentration response curve for this potential difference was fitted to the sigmoidal logistic equation: ΔV=ΔVmax/(1+(EC50/[compound])^n), where ΔVmax represents the maximal left shift of the BK activation curve, EC50 is the concentration causing a half maximal response, and n is the slope coefficient.

T1 sequence (Q12791 whole entry): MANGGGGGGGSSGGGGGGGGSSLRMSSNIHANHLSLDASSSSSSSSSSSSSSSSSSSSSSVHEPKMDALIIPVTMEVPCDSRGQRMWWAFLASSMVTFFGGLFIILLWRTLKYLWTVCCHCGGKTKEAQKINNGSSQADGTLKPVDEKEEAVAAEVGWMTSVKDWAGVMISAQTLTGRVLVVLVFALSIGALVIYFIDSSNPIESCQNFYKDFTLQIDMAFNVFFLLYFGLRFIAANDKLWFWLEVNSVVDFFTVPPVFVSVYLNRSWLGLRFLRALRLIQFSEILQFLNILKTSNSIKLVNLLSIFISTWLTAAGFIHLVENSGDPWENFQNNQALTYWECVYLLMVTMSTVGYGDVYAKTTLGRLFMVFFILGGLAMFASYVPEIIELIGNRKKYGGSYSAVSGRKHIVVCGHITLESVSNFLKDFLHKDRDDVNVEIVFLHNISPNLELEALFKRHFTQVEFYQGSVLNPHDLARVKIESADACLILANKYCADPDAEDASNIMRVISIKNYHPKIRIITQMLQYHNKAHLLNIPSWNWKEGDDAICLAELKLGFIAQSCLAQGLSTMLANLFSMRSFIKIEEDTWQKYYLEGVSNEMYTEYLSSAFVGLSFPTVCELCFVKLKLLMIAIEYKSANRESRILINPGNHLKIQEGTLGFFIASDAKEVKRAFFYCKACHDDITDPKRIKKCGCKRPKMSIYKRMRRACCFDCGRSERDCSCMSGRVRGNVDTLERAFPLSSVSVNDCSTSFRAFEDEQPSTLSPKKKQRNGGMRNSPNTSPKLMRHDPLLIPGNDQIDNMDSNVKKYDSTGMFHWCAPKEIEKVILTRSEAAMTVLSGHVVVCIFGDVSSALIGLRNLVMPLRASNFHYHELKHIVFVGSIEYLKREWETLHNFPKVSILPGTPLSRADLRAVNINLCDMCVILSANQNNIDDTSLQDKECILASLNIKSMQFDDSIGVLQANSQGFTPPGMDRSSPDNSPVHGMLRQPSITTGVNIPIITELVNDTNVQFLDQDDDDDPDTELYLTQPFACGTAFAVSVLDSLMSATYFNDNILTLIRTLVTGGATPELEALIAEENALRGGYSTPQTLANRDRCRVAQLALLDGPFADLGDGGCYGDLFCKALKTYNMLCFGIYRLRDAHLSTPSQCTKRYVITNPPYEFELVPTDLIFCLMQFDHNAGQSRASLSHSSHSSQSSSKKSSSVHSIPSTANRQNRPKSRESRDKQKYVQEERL

Compound | melting point | maximal left-shift of the BK activation curve (ΔVmax) [1] | EC50 [1]
Cc1oc(-c2ccc(Cl)cc2)cc1C(=O)Nc1cc(Cl)ccc1-c1noc(=O)[nH]1 [Compound 20, 5-(4-Chloro-phenyl)-2-methyl-furan-3-carboxylic acid [5-chloro-2-(5-oxo-4,5-dihydro-[1,2,4]oxadiazol-3-yl)-phenyl]-amide] | 248.1 to 250.9 °C | – | –
Cc1nc(-c2ccc(C(F)(F)F)cc2)sc1C(=O)Nc1cc(Cl)ccc1-c1nnn[nH]1 [Compound 9, 4-Methyl-2-(4-trifluoromethyl-phenyl)-thiazole-5-carboxylic acid [5-chloro-2-(1H-tetrazol-5-yl)-phenyl]-amide] | 325 to 337.2 °C | −99 mV | 970 nM
CS(=O)(=O)NC(=O)c1ccc(Cl)cc1NC(=O)c1cc(-c2ccc(Cl)cc2)oc1C(F)(F)F [Compound 5, 5-(4-Chloro-phenyl)-2-trifluoromethyl-furan-3-carboxylic acid (5-chloro-2-methanesulfonylaminocarbonyl-phenyl)-amide] | 259 to 262 °C | – | –
Cc1oc(-c2ccc(Cl)cc2)cc1C(=O)Nc1cc(Cl)ccc1-c1nnn[nH]1 [Compound 12, 5-(4-Chloro-phenyl)-2-methyl-furan-3-carboxylic acid [5-chloro-2-(1H-tetrazol-5-yl)-phenyl]-amide] | 246.7 to 255.4 °C | – | –
O=C(Nc1cc(Cl)ccc1-c1nnn[nH]1)c1cc(-c2ccc(Cl)cc2)oc1C(F)(F)F [Compound 1, 5-(4-Chloro-phenyl)-2-trifluoromethyl-furan-3-carboxylic acid [5-chloro-2-(1H-tetrazol-5-yl)-phenyl]-amide] | – | −88 mV | 4400 nM
O=C(Nc1cc(Cl)ccc1-c1nnn[nH]1)c1cnn(-c2ccc(Cl)cc2)c1C(F)(F)F [Compound 2, 1-(4-Chloro-phenyl)-5-trifluoromethyl-1H-pyrazole-4-carboxylic acid [5-chloro-2-(1H-tetrazol-5-yl)-phenyl]-amide] | 176.3 to 180.4 °C | −94 mV | 2400 nM
O=C(Nc1cc(Cl)ccc1OCc1nnn[nH]1)c1cc(-c2ccc(Cl)cc2)oc1C(F)(F)F [Compound 7, 5-(4-Chloro-phenyl)-2-trifluoromethyl-furan-3-carboxylic acid [5-chloro-2-(1H-tetrazol-5-ylmethoxy)-phenyl]-amide] | 226.9 to 236.1 °C | – | –
O=C(O)c1cc(F)c(F)cc1NC(=O)c1cc(-c2ccc(Cl)cc2)oc1C(F)(F)F [Compound 13, 2-{[5-(4-Chloro-phenyl)-2-trifluoromethyl-furan-3-carbonyl]-amino}-4,5-difluoro-benzoic acid] | 337.2 to 340.2 °C | – | –
